Measurements taken from US10301280B2 (Plexxikon Inc., priority 2012, dated 2019).

System: BaF3-FL KIT D816V or BaF3-FL KIT V560G/D816V cell line
Experiment: Cell-based assays of c-Kit mutant kinase activity (cell growth, ATPlite)
Settings: at least one of the c-kit cell assays of Example 26
Method: The c-Kit mutant D816V inhibitors were assessed using an engineered BaF3-FL KIT D816V or BaF3-FL KIT V560G/D816V cell line. The BaF3-FL KIT D816V cell lines were created by introduction of KIT mutant (D816V) full length constructs that render the cells dependent on the introduced kinase for growth. Inhibitors of c-Kit mutant D816V kinase reduce or eliminate the mediated c-kit mutant D816V kinase activation, resulting in reduced cell proliferation of the BaF3-FL Kit mutant D816V cells. This inhibition is measured by the effect of compound concentration on cell growth to assess IC50 values. BaF3-FL KIT D816V cells were seeded at 1×10^4 cells per well of a 96 well cell culture plate in 50 μl of cell culture medium of RPMI Medium 1X (Invitrogen #11875-093) supplemented with 10% FBS (Invitrogen #10438), 1% Non Essential Amino Acids(Invitrogen #11140), 1% Penicillin Streptomycin (Invitrogen #15140), 1% L-Glutamine (Invitrogen #25030-081). Compounds were dissolved in DMSO at a concentration of 5 mM and were serially diluted 1:3 for a total of eight points and added to the cells to a final maximum concentration of 10 μM in 100 μl cell culture medium (final concentration 0.2% DMSO). Cells were also treated with Dasatinib as a positive control. The cells were incubated at 37° C., 5% CO2 for three days. ATPlite Buffer (Perkin Elmer #6016739) and substrate were equilibrated to room temperature, and enzyme/substrate Recombinant Firefly Luciferase/D-Luciferin was reconstituted. The cell plates were equilibrated to room temperature for 30 minutes, then lysed by addition of 25 uL per well of the ATPlite Reagent. The plate was mixed for 5 minutes on a plate shaker to lyse the cells. The plates were read on a Tecan Safire using Luminescence protocol modified to read 0.1 s per well. The luminescence reading assesses the ATP content, which correlates directly with cell number such that the reading as a function of compound concentration is used to determine the IC50 value.
Plasmids P75635 and P75565 were engineered for mammalian cell expression. In both plasmids, full-length human v-kit Hardy-Zuckerman 4 feline sarcoma viral oncogene homolog gene (NCBI accession NM_000222, KIT, residues M1-V976) was subcloned into the pCI-Neo vector (Promega E1841). Plasmid P75635 contains the mutation of residue Aspartic acid 816 to Valine. Plasmid P75565 contains the double mutation of residues Valine 560 to Glycine and Aspartic acid 816 to Valine. The pCI-neo Mammalian Expression Vector carries the human cytomegalovirus (CMV) immediate-early enhancer/promoter region to promote constitutive expression of KIT and contains the neomycin phosphotransferase gene, a selectable marker.
It is understood that the results of these assays may vary as assay conditions are varied. Inhibition levels determined under the conditions described herein represent a relative activity for the compounds tested under the specific conditions employed. The cell based assays are likely to show variability due to the complexity of the system and the sensitivity thereof to any changes in the assay conditions. […] In some instances, the compounds were not tested in all of the assays, or assay results were not valid.

| IC50 | SMILES |
| --- | --- |
| < 10 µM | CC(=O)N1CCC(n2cc(-c3cc4cc(NC(=O)c5n[nH]c(C)c5C)cnc4[nH]3)c(C)n2)CC1 [P-2202, N-(2-(1-(1-acetylpiperidin-4-yl)-3-methyl-1H-pyrazol-4-yl)-1H-pyrrolo[2,3-b]pyridin-5-yl)-4,5-dimethyl-1H-pyrazole-3-carboxamide] |
| < 10 µM | Cc1nn(C2CCN(C(=O)C3CC3)CC2)cc1-c1cc2cc(NC(=O)c3n[nH]c(C)c3C)cnc2[nH]1 [P-2203, N-(2-(1-(1-(cyclopropanecarbonyl)piperidin-4-yl)-3-methyl-1H-pyrazol-4-yl)-1H-pyrrolo[2,3-b]pyridin-5-yl)-4,5-dimethyl-1H-pyrazole-3-carboxamide] |
| < 10 µM | Cc1[nH]nc(C(=O)Nc2cnc3[nH]c(-c4ccnc(NC5CC5)c4)cc3c2)c1C [P-2204, N-(2-(2-(cyclopropylamino)pyridin-4-yl)-1H-pyrrolo[2,3-b]pyridin-5-yl)-4,5-dimethyl-1H-pyrazole-3-carboxamide] |
| < 10 µM | Cc1[nH]nc(C(=O)Nc2cnc3[nH]c(-c4ccnc(NC(=O)C5CC5)c4Cl)cc3c2)c1C [P-2205, N-(2-(3-chloro-2-(cyclopropanecarboxamido)pyridin-4-yl)-1H-pyrrolo[2,3-b]pyridin-5-yl)-4,5-dimethyl-1H-pyrazole-3-carboxamide] |
| < 10 µM | Cc1[nH]nc(C(=O)Nc2cnc3[nH]c(-c4ccnc(NC(=O)C5CC5)c4)cc3c2)c1C [P-2206, N-(2-(2-(cyclopropanecarboxamido)pyridin-4-yl)-1H-pyrrolo[2,3-b]pyridin-5-yl)-4,5-dimethyl-1H-pyrazole-3-carboxamide] |
| < 10 µM | Cc1[nH]nc(C(=O)Nc2cnc3[nH]c(-c4ccnc(C5CCN(C(=O)C6CC6)CC5)c4)cc3c2)c1C [P-2207, N-(2-(2-(1-(cyclopropanecarbonyl)piperidin-4-yl)pyridin-4-yl)-1H-pyrrolo[2,3-b]pyridin-5-yl)-4,5-dimethyl-1H-pyrazole-3-carboxamide] |
| < 10 µM | Cc1[nH]nc(C(=O)Nc2cnc3[nH]c(-c4ccnc(N5CCCC5)c4)cc3c2)c1C [P-2208, 4,5-dimethyl-N-(2-(2-(pyrrolidin-1-yl)pyridin-4-yl)-1H-pyrrolo[2,3-b]pyridin-5-yl)-1H-pyrazole-3-carboxamide] |
| < 10 µM | Cc1[nH]nc(C(=O)Nc2cnc3[nH]c(-c4ccnc(N5CCCCC5)c4)cc3c2)c1C [P-2209, 4,5-dimethyl-N-(2-(2-(piperidin-1-yl)pyridin-4-yl)-1H-pyrrolo[2,3-b]pyridin-5-yl)-1H-pyrazole-3-carboxamide] |
| < 10 µM | Cc1[nH]nc(C(=O)Nc2cnc3[nH]c(-c4ccnc(N5CCC(C)CC5)c4)cc3c2)c1C [P-2210, 4,5-dimethyl-N-(2-(2-(4-methylpiperidin-1-yl)pyridin-4-yl)-1H-pyrrolo[2,3-b]pyridin-5-yl)-1H-pyrazole-3-carboxamide] |
| < 10 µM | Cc1[nH]nc(C(=O)Nc2cnc3[nH]c(-c4ccnc(C5CCNCC5)c4)cc3c2)c1C [P-2211, 4,5-dimethyl-N-(2-(2-(piperidin-4-yl)pyridin-4-yl)-1H-pyrrolo[2,3-b]pyridin-5-yl)-1H-pyrazole-3-carboxamide] |
| < 10 µM | Cc1[nH]nc(C(=O)Nc2cnc3[nH]c(-c4ccnc(N5CCC(O)CC5)c4)cc3c2)c1C [P-2212, N-(2-(2-(4-hydroxypiperidin-1-yl)pyridin-4-yl)-1H-pyrrolo[2,3-b]pyridin-5-yl)-4,5-dimethyl-1H-pyrazole-3-carboxamide] |

Second part, the compound before the results:

| SMILES | IC50 |
| --- | --- |
| O=C(Nc1cnc2[nH]c(-c3ccc(F)cc3)cc2c1)c1cc(C(F)(F)F)n[nH]1 [P-2156, N-[2-(4-fluorophenyl)-1H-pyrrolo[2,3-b]pyridin-5-yl]-3-(trifluoromethyl)-1H-pyrazole-5-carboxamide] | < 10 µM |
| COc1nc(C)ccc1-c1cc2cc(NC(=O)c3[nH]nc(C)c3C)cnc2[nH]1 [P-2170, N-[2-(2-methoxy-6-methyl-3-pyridyl)-1H-pyrrolo[2,3-b]pyridin-5-yl]-3,4-dimethyl-1H-pyrazole-5-carboxamide] | < 10 µM |
| COc1nccc(-c2cc3cc(NC(=O)c4[nH]nc(C)c4C)cnc3[nH]2)c1Cl [P-2171, N-[2-(3-chloro-2-methoxy-4-pyridyl)-1H-pyrrolo[2,3-b]pyridin-5-yl]-3,4-dimethyl-1H-pyrazole-5-carboxamide] | < 10 µM |
| CCc1n[nH]c(C(=O)Nc2cnc3[nH]c(-c4ccc(F)cc4)cc3c2)c1Cl [P-2173, 4-chloro-3-ethyl-N-[2-(4-fluorophenyl)-1H-pyrrolo[2,3-b]pyridin-55-yl]-1H-pyrazole-5-carboxamide] | < 10 µM |
| Cc1[nH]nc(C(=O)Nc2cnc3[nH]cc(-c4cccc(N5CCNCC5)n4)c3c2)c1C [P-2190, 4,5-dimethyl-N-(3-(6-(piperazin-1-yl)pyridin-2-yl)-1H-pyrrolo[2,3-b]pyridin-5-yl)-1H-pyrazole-3-carboxamide] | < 10 µM |
| Cc1[nH]nc(C(=O)Nc2cnc3[nH]cc(-c4cccc(N5CCOCC5)n4)c3c2)c1C [P-2192, 4,5-dimethyl-N-(3-(6-morpholinopyridin-2-yl)-1H-pyrrolo[2,3-b]pyridin-5-yl)-1H-pyrazole-3-carboxamide] | < 10 µM |
| Cc1[nH]nc(C(=O)Nc2cnc3[nH]cc(-c4ccnc(N5CCOCC5)c4)c3c2)c1C [P-2193, 4,5-dimethyl-N-(3-(2-morpholinopyridin-4-yl)-1H-pyrrolo[2,3-b]pyridin-5-yl)-1H-pyrazole-3-carboxamide] | < 10 µM |
| CC(=O)N1CC(n2cc(-c3cc4cc(NC(=O)c5n[nH]c(C)c5C)cnc4[nH]3)c(C)n2)C1 [P-2194, N-(2-(1-(1-acetylazetidin-3-yl)-3-methyl-1H-pyrazol-4-yl)-1H-pyrrolo[2,3-b]pyridin-5-yl)-4,5-dimethyl-1H-pyrazole-3-carboxamide] | < 10 µM |
| Cc1nn(C2CNC2)cc1-c1cc2cc(NC(=O)c3n[nH]c(C)c3C)cnc2[nH]1 [P-2195, N-(2-(1-(azetidin-3-yl)-3-methyl-1H-pyrazol-4-yl)-1H-pyrrolo[2,3-b]pyridin-5-yl)-4,5-dimethyl-1H-pyrazole-3-carboxamide] | < 10 µM |
| Cc1[nH]nc(C(=O)Nc2cnc3[nH]c(-c4cnn(C5COC5)c4C)cc3c2)c1C [P-2196, 4,5-dimethyl-N-(2-(5-methyl-1-(oxetan-3-yl)-1H-pyrazol-4-yl)-1H-pyrrolo[2,3-b]pyridin-5-yl)-1H-pyrazole-3-carboxamide] | < 10 µM |
| Cc1[nH]nc(C(=O)Nc2cnc3[nH]c(-c4cnn(C5CNC5)c4C)cc3c2)c1C [P-2197, N-(2-(1-(azetidin-3-yl)-5-methyl-1H-pyrazol-4-yl)-1H-pyrrolo[2,3-b]pyridin-5-yl)-4,5-dimethyl-1H-pyrazole-3-carboxamide] | < 10 µM |
| Cc1[nH]nc(C(=O)Nc2cnc3[nH]c(-c4cnn(C5CCNCC5)c4C)cc3c2)c1C [P-2198, 4,5-dimethyl-N-(2-(5-methyl-1-(piperidin-4-yl)-1H-pyrazol-4-yl)-1H-pyrrolo[2,3-b]pyridin-5-yl)-1H-pyrazole-3-carboxamide] | < 10 µM |
| CC(=O)N1CCC(n2ncc(-c3cc4cc(NC(=O)c5n[nH]c(C)c5C)cnc4[nH]3)c2C)CC1 [P-2199, N-(2-(1-(1-acetylpiperidin-4-yl)-5-methyl-1H-pyrazol-4-yl)-1H-pyrrolo[2,3-b]pyridin-5-yl)-4,5-dimethyl-1H-pyrazole-3-carboxamide] | < 10 µM |
| Cc1[nH]nc(C(=O)Nc2cnc3[nH]c(-c4cnn(C5CCN(C(=O)C6CC6)CC5)c4C)cc3c2)c1C [P-2200, N-(2-(1-(1-(cyclopropanecarbonyl)piperidin-4-yl)-5-methyl-1H-pyrazol-4-yl)-1H-pyrrolo[2,3-b]pyridin-5-yl)-4,5-dimethyl-1H-pyrazole-3-carboxamide] | < 10 µM |
| Cc1nn(C2CCNCC2)cc1-c1cc2cc(NC(=O)c3n[nH]c(C)c3C)cnc2[nH]1 [P-2201, 4,5-dimethyl-N-(2-(3-methyl-1-(piperidin-4-yl)-1H-pyrazol-4-yl)-1H-pyrrolo[2,3-b]pyridin-5-yl)-1H-pyrazole-3-carboxamide] | < 10 µM |
